Converted amounts (≈) assume the structure as drawn. Where a name gives a salt, the structure may show the parent alone. Read-outs that look alike come from different tables or passages of the source.
What was measured:
eyelashes and hairs [1] = assay: Stimulation of hair growth and eyelash growth by HPCs of prostaglandins; assay type: in vivo; settings: about 1 ml of 1% in pure water on head skin, more than 1 month
eyelashes and hairs [2] = assay: as above; assay type: in vivo; settings: about 0.2 ml of 1% in pure water near the eyelashes, more than 1 month
Method: (§1) About 0.2 ml of 1% of HPC of N,N-diethylaminoethyl 11,15-dihydroxy-9-oxoprost-13-en-1-oate.HBr (the HPC of prostaglandin E1), N,N-diethylaminoethyl (Z)-7-{[(1R,2R,3R,5S)-3,5-Dihydroxy-2-[1E,3S]-3-hydroxy-5-phenyl-1-pentenyl]cyclopentyl}-5-N-ethylheptenoate.HBr(the HPC of bimatoprost), (13,14-dihydro-17-phenyl-18,19,20-trinor PGF2αN,N-diethylaminoethyl ester, N,N-diethylaminoethyl (Z)-7-[(1R,2R,3R,5S)-3,5-dihydroxy-2-[(1E,3R)-3-hydroxy-4-[(α,α,α-trifluoro-m-tolyl)oxy]-1-butenyl]cyclopentyl]-5-heptenoate.HBr, or 13,14-dihydro-15-keto-20-ethyl PGF2αN,N-diethylaminoethyl ester in pure water is applied to the skin area close to the eyelashes (0.1 ml solution for each eye).
as §1, with “1” for “0.2”, “(frontal and parietal areas) on” for “area close to”, “head skull.” for “eyelashes (0.1 ml solution for each eye).”

Hypertension patients = assay: Anti-hypertensive effect of transdermal atenolol HCl salt in patients; assay type: in vivo, human
Method: 20 Hypertension patents were divided to 2 groups. Group A was control group (n=10, 1 ml of water was administrated to the chest of patients once per day) and group B was atenolol treated group (n=10, 100 mg of atenolol HCl salt was administrated to the chest of patients once per day).

[3] = system: MPTP-induced Parkinson's disease mice; assay: Anti-Parkinson's disease activity in MPTP-induced mice; settings: mouse, in vivo
Method: Group A mice were ip injected 0.4% sodium carboxymethylcellulos (15 ml/kg per day) for 7 days. Group B and C mice were ip injected N-methyl-4-phenyl-1,2,3,6-tetrahydropyridine (MPTP, 30 mg/kg per day) for 7 days. The mice were divided into 2 groups. […] All mice were killed after the last treatment and the brain tissues were quickly freezed at −80° C. […] The contents of malondialdehyde (MDA) in the SN were measured with the thiobarbituric acid-reaction to indicate the LPO, and contents of glutathione (GSH) in the substantia nigra (SN) were based on the dithionitrobenzonic acid (DTNB) determination. The contents of GABA and Glu in the striatum and SN were shown by high performance amino acid auto-analyser.

[4] = system: Human colon cancer cells (LS174J); assay: Human colon cancer xenograft in nude mice
Text: Human colon cancer cells (LS174J, 2-3 mm^3 of tumor tissue was used in each mouse) were subcutaneously xenografted into nude mice (BALB).

[5] = system: lesions similar to psoriasis generated by Malassezia; assay: Anti-psoriasis activity, Malassezia-induced lesions; assay type: in vivo, Chinese white rabbits; settings: HPC 5% aq. applied to the lesion areas twice per day
Method: Heavy suspensions of Malassezia [Rosenberg, E. W., et al., Mycopathologia, 72, 147-154 (1980)] were applied to the shaved skin on the backs of Chinese white rabbits (n=4×6) twice (at […]) per day for 2 weeks to generate lesions similar to psoriasis. HPCs (5%, aq.) were applied to the same areas 3 hours (10 am and 6 pm) after the application of Malassezia (7 am and 3 pm). […] HCl, diethylaminoethyl 1,8-diethyl-1,3,4,9-tetrahydropyrano-[3,4-b]indole-1-acetate.HCl, diethylaminoethyl 2-amino-3-(4-bromo-benzoyl)benzeneacetate.HCl, diethylaminoethyl 3-chloro-4-(2-propenyloxy)benzeneacetate. HCl, diethylaminoethyl 1-(4-chlorobenzoyl-5-methoxy-2-methyl-1H-indole-3-acetoxyacetate. HCl, diethylaminoethyl 4-(4-chlorophenyl)-2-phenyl-5-thiazoleacetate.HCl, and diethylaminoethyl 3-(4-chlorophenyl)-1-phenyl-1H-pyrazole-4-acetate.HCl

[6] = system: methicillin-resistant Staphylococcus aureus (MRSA); assay: Minimum inhibitory concentrations (MICs); assay type: cell-based
Method: Minimum inhibitory concentrations (MICs) of the antimicrobials and their HPCs were assessed according to Jennifer M. Andrews, Journal of Antimicrobial Chemotherapy 48, suppl. S1, 5-16 (2001). […] The test compounds are: 6-phenoxyacetacetamidopenicillanic acid 1-piperidineethyl ester hydrochloride (penicillin V-PEE), penicillin V, 6-(2,6-dimethoxybenzamido)penicillinic acid 2-pyrrolidinemethyl ester hydrochloride (methicillin-PME), methicillin, 7-[[(2-acetylamino-4-thiazolyl)(methoxyimino)acetyl]amino]-8-oxo-5-thia-1-azabicyclo[4.2.0]oct-2-ene-2-carboxylic acid 2-diethylaminoethyl ester hydrochloride (ceftizoxime-DEE), and ceftizoxime).

[7] = system: Human breast cancer cells (BCAP-37); assay: Human breast cancer xenograft in nude mice
Method: Human breast cancer cells (BCAP-37, 2-3 mm^3 of tumor tissue was used in each mouse) were subcutaneously xenografted into nude mice (BALB, 12 groups, 7 mice each group). […] 50 μl of 5% (equal to 2.5 mg of the HPCs) diethylaminoethyl acetylsalicylate.HCl (P-1, in pure water); 1-piperidinepropyl 2[(2,6-dichlorophenyl)amino]benzene acetate.HCl (P-2, in water), 1-pyrrolidinepropyl 2-(3-benzoylphenyl) propionate.HCl (P-3, in water), 4-piperidinemethyl 2-(3-phenoxyphenyl)propionate.HCl (P-4, in water), 3-piperidinemethyl 2-(ρ-isobutylphenyl) propionate.HCl (P-5, in water), diethylaminoethyl 1-(p-chlorobenzoyl)-5-methoxy-2-methylindole 3-acetate.HCl (P-11, in water), 2-(4-morpholinyl)ethyl (Z)-5-fluoro-2-methyl-1-[(4-methylsulfinyl)phenylmethylene]-1H-indene-3-acetate.

[8] = 100 mg to the chest once per day, n=10
[9] = about 50 μl of 5% topically every 12 hours

Br.CCN(CC)CCOC(=O)CCC/C=C\C[C@@H]1[C@@H](/C=C/[C@@H](O)COc2cccc(C(F)(F)F)c2)[C@H](O)C[C@@H]1O [N,N-diethylaminoethyl (Z)-7-[(1R,2R,3R,5S)-3,5-dihydroxy-2-[(1E,3R)-3-hydroxy-4-[(α,α,α-trifluoro-m-tolyl)oxy]-1-butenyl]cyclopentyl]-5-heptenoate.HBr]
hair growth (eyelashes and hairs [1]): grow longer and fuller
eyelash growth (eyelashes and hairs [2]): grow longer and fuller

CC(C)NCC(O)COc1ccc(CC(N)=O)cc1 (stereo not drawn) [atenolol HPC, atenolol HCl salt]
side effect (Hypertension patients; 100 mg in 1 ml of pure water per day transdermally): without side effect of hypotention
Blood Pressure (before treatment), first figure of the pair (Hypertension patients; [8]): 160 ± 22 mmHg
Blood Pressure (before treatment), second figure of the pair (Hypertension patients; [8]): 110 ± 20 mmHg
Blood pressure (2 weeks after treatment), first figure of the pair (Hypertension patients; [8]): 128 ± 15 mmHg
Blood pressure (2 weeks after treatment), second figure of the pair (Hypertension patients; [8]): 81 ± 12 mmHg

CCCCCCCC(=O)CC[C@@H]1[C@@H](C/C=C\CCCC(=O)OCCN(CC)CC)[C@@H](O)C[C@H]1O [13,14-dihydro-15-keto-20-ethyl PGF2αN,N-diethylaminoethyl ester]
hair growth (eyelashes and hairs [1]): grow longer and fuller
eyelash growth (eyelashes and hairs [2]): grow longer and fuller

NC(=O)C[S+]([O-])C(c1ccccc1)c1ccccc1 (stereo not drawn) [modafinil, reference compound]
effect on the increase of nigrostriatal Glu release induced by MPTP [3]: did not change the increase of nigrostriatal Glu release induced by MPTP

CCN(CC)CCOC(=O)Cc1ccc(C(=O)c2ccc(C)cc2)n1C.Cl [P-13, diethylaminoethyl 1-methyl-5-(4-methylbenzoyl)-1H-pyrrole-2-acetate.HCl]
Weight of mice at day 30 [4, 9]: 23 ± 3
tumor Size at day 30 [4, 9]: 690 ± 250 mm^3
time until lesions healed after the application [5]: 10 days

CC1(C)SC2C(NC(=O)COc3ccccc3)C(=O)N2C1C(=O)OCCN1CCCCC1.Cl (stereo not drawn) [penicillin V-PEE, 6-phenoxyacetacetamidopenicillanic acid 1-piperidineethyl ester hydrochloride]
MIC [6]: 12 µg/mL

CC(C)Cc1ccc(C(C)C(=O)OCC2CCCNC2)cc1.Cl (stereo not drawn) [P-5, 3-piperidinemethyl 2-(ρ-isobutylphenyl) propionate.HCl]
tumor Size at day 42 ([7]; 50 μl of 5% topically every 8 hours): 180 ± 55 mm^3
Weight of mice at day 42 ([7]; in vivo): 23 ± 2
tumor Size at day 30 [4, 9]: 520 ± 140 mm^3
Weight of mice at day 30 ([4]; in vivo): 23 ± 2
time until lesions healed after the application [5]: 10 days

CCN(CC)CCOC(=O)Cc1cn(-c2ccccc2)nc1-c1ccc(Cl)cc1.Cl [diethylaminoethyl 3-(4-chlorophenyl)-1-phenyl-1H-pyrazole-4-acetate.HCl]
time until lesions healed after the application [5]: 10 days

CCN(CC)CCOC(=O)C1=CCSC2C(NC(=O)C(=NOC)c3csc(NC(C)=O)n3)C(=O)N12.Cl (stereo not drawn) [ceftizoxime-DEE, 7-[[(2-acetylamino-4-thiazolyl)(methoxyimino)acetyl]amino]-8-oxo-5-thia-1-azabicyclo[4.2.0]oct-2-ene-2-carboxylic acid 2-diethylaminoethyl ester hydrochloride]
MIC ([6]; read-out: MIC): 2.5 µg/mL

COc1cccc(OC)c1C(=O)N[C@@H]1C(=O)N2[C@@H]1SC(C)(C)[C@@H]2C(=O)O [methicillin, reference compound]
MIC ([6]; read-out: MIC): 1160 µg/mL (≈ 3.04 mM)

CC1(C)S[C@@H]2[C@H](NC(=O)COc3ccccc3)C(=O)N2[C@H]1C(=O)O [penicillin V, reference compound]
MIC [6]: 1824 µg/mL (≈ 5.21 mM)

CCc1cccc2c3c([nH]c12)C(CC)(CC(=O)OCCN(CC)CC)OCC3.Cl (stereo not drawn) [diethylaminoethyl 1,8-diethyl-1,3,4,9-tetrahydropyrano-[3,4-b]indole-1-acetate.HCl]
time until lesions healed after the application [5]: 10 days

CCN(CC)CCOC(=O)CCC/C=C\C[C@@H]1[C@@H](CC[C@@H](O)CCc2ccccc2)[C@H](O)C[C@@H]1O [(13,14-dihydro-17-phenyl-18,19,20-trinor PGF2αN,N-diethylaminoethyl ester]
hair growth (eyelashes and hairs [1]): grow longer and fuller
eyelash growth (eyelashes and hairs [2]): grow longer and fuller

Br.CCCCCC(O)C=C[C@H]1C(O)CC(=O)[C@@H]1CCCCCCC(=O)OCCN(CC)CC (stereo partly drawn) [HPC of prostaglandin E1, N,N-diethylaminoethyl 11,15-dihydroxy-9-oxoprost-13-en-1-oate.HBr]
hair growth (eyelashes and hairs [1]): grow longer and fuller
eyelash growth (eyelashes and hairs [2]): grow longer and fuller

COc1cccc(OC)c1C(=O)NC1C(=O)N2C1SC(C)(C)C2C(=O)OCC1CCCN1.Cl (stereo not drawn) [methicillin-PME, 6-(2,6-dimethoxybenzamido)penicillinic acid 2-pyrrolidinemethyl ester hydrochloride]
MIC [6]: 19 µg/mL

CO/N=C(\C(=O)N[C@@H]1C(=O)N2C(C(=O)O)=CCS[C@H]12)c1csc(N)n1 [ceftizoxime, reference compound]
MIC ([6]; read-out: MIC): 986 µg/mL (≈ 2.57 mM)

Br.CCN(CC)CCOC(=O)CCC/C=C\C[C@@H]1[C@@H](/C=C/[C@@H](O)CCc2ccccc2)[C@H](O)C[C@@H]1O [HPC of bimatoprost, N,N-diethylaminoethyl (Z)-7-{[(1R,2R,3R,5S)-3,5-Dihydroxy-2-[1E,3S]-3-hydroxy-5-phenyl-1-pentenyl]cyclopentyl}-5-N-ethylheptenoate.HBr]
hair growth (eyelashes and hairs [1]): grow longer and fuller
eyelash growth (eyelashes and hairs [2]): grow longer and fuller

CCN(CC)CCOC(=O)Cc1cccc(C(=O)c2ccc(Br)cc2)c1N.Cl [diethylaminoethyl 2-amino-3-(4-bromo-benzoyl)benzeneacetate.HCl]
time until lesions healed after the application [5]: 10 days

Reference: patent US11541029B2, “High penetration compositions and their applications” (Techfields Pharma Co., Ltd., priority 2008, dated 2023)
